From ChEMBL document CHEMBL1141727, “Isolation and cytotoxic evaluation of marine sponge-derived norterpene peroxides” (J Nat Prod, 1998)

Legend:
Type in all cases: functional
HOP-92 = experiment: Growth inhibition of human HOP92 cells
MDA-MB-435 = experiment: Growth inhibition of human MDA-MB-435 cells
P388 = experiment: Growth inhibition of mouse P388 cells assessed as zone units at 50 ug/disk by disk diffusion agar colony formation assay
MOLT-4 = experiment: Growth inhibition of human MOLT4 cells
HOP-62 = experiment: Growth inhibition of human HOP62 cells
[1] = Growth inhibition of mouse M17/ADR cells assessed as zone units at 50 ug/disk by disk diffusion agar colony formation assay
HT-29 = experiment: Growth inhibition of human HT-29 cells
EKVX = experiment: Growth inhibition of human EKVX cells
A498 = experiment: Growth inhibition of human A498 cells
MDA-MB-231 = experiment: Growth inhibition of human MDA-MB-231 cells
SNB-75 = experiment: Growth inhibition of human SNB75 cells
NCI-H522 = experiment: Growth inhibition of human NCI-H522 cells
[2] = Growth inhibition of human MCF7/ADR resistant cells; conditions: NCI/ADR-RES
OVCAR-3 = experiment: Growth inhibition of human OVCAR-3 cells
U-251 = experiment: Growth inhibition of human U251 cells
SF-268 = experiment: Growth inhibition of human SF268 cells
CCRF-CEM = experiment: Growth inhibition of human CCRF-CEM cells
SK-MEL-2 = experiment: Growth inhibition of human SK-MEL-2 cells
KM12 = experiment: Growth inhibition of human KM12 cells
Malme-3M = experiment: Growth inhibition of human MALME-3M cells
IGROV-1 = experiment: Growth inhibition of human IGROV1 cells
[3] = Growth inhibition of human Hs 578T cells
L1210 = experiment: Growth inhibition of mouse L1210 cells assessed as zone units at 50 ug/disk by disk diffusion agar colony formation assay
SK-MEL-28 = experiment: Growth inhibition of human SK-MEL-28 cells
PO3 = experiment: Growth inhibition of mouse PO3 cells assessed as zone units at 50 ug/disk by disk diffusion agar colony formation assay
[4] = Growth inhibition of human […] cells
OVCAR-8 = experiment: Growth inhibition of human OVCAR8 cells
SR = experiment: Growth inhibition of human SR cells
K562 = experiment: Growth inhibition of human K562 cells
HL-60(TB) = experiment: Growth inhibition of human HL-60(TB) cells
CAKI-1 = experiment: Growth inhibition of human Caki1 cells
NCI-H460 = experiment: Growth inhibition of human NCI-H460 cells
COLO 205 = experiment: Growth inhibition of human COLO205 cells
A549 = experiment: Growth inhibition of human A549 cells
SK-OV-3 = experiment: Growth inhibition of human SKOV3 cells
UACC-257 = experiment: Growth inhibition of human UACC257 cells
UO-31 = experiment: Growth inhibition of human UO31 cells
MCF7 = experiment: Growth inhibition of human MCF7 cells
NCI-H322M = experiment: Growth inhibition of human NCI-H322M cells
MDA-N = experiment: Growth inhibition of human MDA-N cells
CX-1 = experiment: Growth inhibition of human CX-1 cells assessed as zone units at 50 ug/disk by disk diffusion agar colony formation assay
HCT-116 = experiment: Growth inhibition of human HCT116 cells
OVCAR-4 = experiment: Growth inhibition of human OVCAR4 cells
HCC 2998 = experiment: Growth inhibition of human HCC2998 cells
SK-MEL-5 = experiment: Growth inhibition of human SK-MEL-5 cells
NCI-H23 = experiment: Growth inhibition of human NCI-H23 cells
ACHN = experiment: Growth inhibition of human ACHN cells
UACC-62 = experiment: Growth inhibition of human UACC62 cells
M14 = experiment: Growth inhibition of human M14 cells
HCT-15 = experiment: Growth inhibition of human HCT15 cells
SF-295 = experiment: Growth inhibition of human SF295 cells
SW-620 = experiment: Growth inhibition of human SW620 cells
NCI-H226 = experiment: Growth inhibition of human NCI-H226 cells
RXF 393 = experiment: Growth inhibition of human […] cells
DU-145 = experiment: Growth inhibition of human DU145 cells
T47D = experiment: Growth inhibition of human T47D cells
786-0 = experiment: Growth inhibition of human 786-0 cells
SF-539 = experiment: Growth inhibition of human SF539 cells
SN12C = experiment: Growth inhibition of human SN12C cells
BT-549 = experiment: Growth inhibition of human BT549 cells
OVCAR-5 = experiment: Growth inhibition of human OVCAR5 cells

CC1=C(CC/C(C)=C/CC[C@@]2(C)CC[C@@H]([C@H](C)C(=O)O)OO2)C(C)(C)CCC1 [EPIMUQUBILIN A]
0 Zone units: Activity (PO3)
42.6 µM: GI50 (MOLT-4)
13.8 µM: GI50 (NCI-H522)
> 100 µM: GI50 (HOP-92) | GI50 (MDA-MB-435) | GI50 (HOP-62) | GI50 (HT-29) | GI50 (EKVX) | GI50 (A498) | GI50 (MDA-MB-231) | GI50 (SNB-75) | GI50 [2] | GI50 (OVCAR-3) | GI50 (U-251) | GI50 (SF-268) | GI50 (SK-MEL-2) | GI50 (KM12) | GI50 (Malme-3M) | GI50 [3] | GI50 (SK-MEL-28) | GI50 [4] | GI50 (OVCAR-8) | GI50 (SR) | GI50 (K562)
50 Zone units: Activity (P388) | Activity (L1210)
61.7 µM: GI50 (CCRF-CEM)
70 Zone units: Activity [1]
47.8 µM: GI50 (HL-60(TB))
43.6 µM: GI50 (IGROV-1)

C=C1CCC[C@H]2[C@](C)(CCC(C)=O)[C@@H](C)CC[C@]12C
100 Zone units: Activity (CX-1)
0 Zone units: Activity (P388) | Activity [1] | Activity (L1210) | Activity (PO3)
3.02 µM: GI50 (SNB-75)
> 15 µM: GI50 (HOP-92) | GI50 (MDA-MB-435) | GI50 (CAKI-1) | GI50 (NCI-H460) | GI50 (MOLT-4) | GI50 (COLO 205) | GI50 (HOP-62) | GI50 (A549) | GI50 (SK-OV-3) | GI50 (UACC-257) | GI50 (UO-31) | GI50 (HT-29) | GI50 (EKVX) | GI50 (A498) | GI50 (MCF7) | GI50 (MDA-MB-231) | GI50 (NCI-H322M) | GI50 (MDA-N) | GI50 (HCT-116) | GI50 (NCI-H522) | GI50 (OVCAR-4) | GI50 [2] | GI50 (OVCAR-3) | GI50 (U-251) | GI50 (HCC 2998) | GI50 (SK-MEL-5) | GI50 (CCRF-CEM) | GI50 (SK-MEL-2) | GI50 (NCI-H23) | GI50 (ACHN) | GI50 (UACC-62) | GI50 (KM12) | GI50 (Malme-3M) | GI50 (M14) | GI50 (IGROV-1) | GI50 (HCT-15) | GI50 [3] | GI50 (SF-295) | GI50 (SK-MEL-28) | GI50 (SW-620) | GI50 (NCI-H226) | GI50 (RXF 393) | GI50 [4] | GI50 (OVCAR-8) | GI50 (SR) | GI50 (DU-145) | GI50 (T47D) | GI50 (786-0) | GI50 (SF-539) | GI50 (HL-60(TB)) | GI50 (SN12C) | GI50 (BT-549) | GI50 (OVCAR-5)
